Reference: US12492173B2, “Herbicidal substituted N-tetrazolyl aryl carboxamides” (Bayer Aktiengesellschaft, priority 2019, dated 2025)

Assays:
Type in all cases: in vivo
[1] = tested on: Abutilon theophrasti; experiment: Pre-emergence herbicidal action, ABUTH; settings: dosage 320 g/ha
Method in brief: (§1)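 Weed seeds sown in sandy loam and covered; WP or EC formulations applied to soil surface as aqueous suspension or emulsion at 600 to 800 l/ha with 0.2% wetting agent. Greenhouse-grown, with damage scored visually after 3 weeks versus untreated controls (0% = like control, 100% = plants dead).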

[2] = tested on: Amaranthus retroflexus; experiment: Pre-emergence herbicidal action, AMARE; settings: dosage 320 g/ha
Method in brief: as §1

[3] = tested on: Echinochloa crus-galli; experiment: Pre-emergence herbicidal action, ECHCG; settings: dosage 320 g/ha
Method in brief: as §1

[4] = tested on: Matricaria inodora; experiment: Pre-emergence herbicidal action, MATIN; settings: dosage 320 g/ha
Method in brief: as §1

[5] = tested on: Pharbitis purpurea; experiment: Pre-emergence herbicidal action, PHBPU; settings: dosage 320 g/ha
Source text: (§2) 1. Pre-Emergence Herbicidal Action Against Harmful Plants Seeds of monocotyledonous and dicotyledonous weed plants and crop plants are laid out in sandy loam soil in wood-fiber pots and covered with soil. The compounds of the invention, formulated in the form of wettable powders (WP) or as emulsion concentrates (EC), are then applied to the surface of the covering soil in the form of an aqueous suspension or emulsion at a water application rate equating to 600 to 800 l/ha, with addition of 0.2% wetting agent. After the treatment, the pots are placed in a greenhouse and kept under good growth conditions for the trial plants. The damage to the test plants is scored visually after a test period of 3 weeks by comparison with untreated controls (herbicidal activity in percent (%): 100% activity=the plants have died, 0% activity=like control plants). […] The tables below illustrate, in an exemplary manner, the […] herbicidal action of the compounds according to the invention, the herbicidal activity being stated in percent. [table] In the experiments that follow, herbicidal action of numerous inventive compounds and the known compounds that are structurally closest from D1 (WO 2012/028579 A1) and D2 (WO 2018/202535 A1) were compared under the above-specified conditions by the pre-emergence and post-emergence method. The example numbers given in the tables relate to the compounds disclosed in the respective documents. In addition to the compounds disclosed in D1 and D2, the following compounds V-1 to V-14 that are encompassed by D1 or D2 but are not compounds specified therein were used in the comparative experiments: • V-1: 2-(methylsulfanyl)-3-(methylsulfinyl)-N-(1-methyl-1H-tetrazol-5-yl)-4-(trifluoromethyl)benzamide • V-2: 2-(methylsulfanyl)-3-(methylsulfonyl)-N-(1-methyl-1H-tetrazol-5-yl)-4-(trifluoromethyl)benzamide • V-3: 2,3-bis(ethylsulfanyl)-N-(1-methyl-1H-tetrazol-5-yl)-4-(trifluoromethyl)benzamide • V-4: 2-chloro-3-(ethylsulfanyl)-N-(1-methyl-1H-tetrazol-5-yl)-4-(trifluoromethyl)benzamide • V-5: 2-chloro-4-iodo-3-(methylsulfanyl)-N-(1-methyl-1H-tetrazol-5-yl)benzamide • V-6: 2-chloro-4-iodo-3-(methylsulfinyl)-N-(1-methyl-1H-tetrazol-5-yl)benzamide • V-7: 2-chloro-4-iodo-3-(methylsulfonyl)-N-(1-methyl-1H-tetrazol-5-yl)benzamide • V-8: 2-bromo-3-(methylsulfanyl)-N-(1-methyl-1H-tetrazol-5-yl)-4-(trifluoromethyl)benzamide • V-9: 2-bromo-3-(methylsulfinyl)-N-(1-methyl-1H-tetrazol-5-yl)-4-(trifluoromethyl)benzamide • V-10: 2-bromo-3-(methylsulfonyl)-N-(1-methyl-1H-tetrazol-5-yl)-4-(trifluoromethyl)benzamide • V-11: 2-bromo-3-(ethylsulfanyl)-N-(1-methyl-1H-tetrazol-5-yl)-4-(trifluoromethyl)benzamide • V-12: 2-bromo-3-(ethylsulfinyl)-N-(1-methyl-1H-tetrazol-5-yl)-4-(trifluoromethyl)benzamide • V-13: 2-bromo-3-(ethylsulfonyl)-N-(1-methyl-1-1H-tetrazol-5-yl)-4-(trifluoromethyl)benzamide • V-14: 2-cyclopropyl-3-(ethylsulfanyl)-N-(1-methyl-1H-tetrazol-5-yl)-4-(trifluoromethyl)benzamide Herbicidal Pre-Emergence Action: […]

[6] = tested on: Polygonum convolvulus; experiment: Pre-emergence herbicidal action, POLCO; settings: dosage 320 g/ha, scored visually after 3 weeks vs untreated controls (100% = plants have died)
Source text: as §2

[7] = tested on: Setaria viridis; experiment: Pre-emergence herbicidal action, SETVI; settings: dosage 320 g/ha, scored visually after 3 weeks vs untreated controls (100% = plants have died)
Source text: as §2

[8] = tested on: Stellaria media; experiment: Pre-emergence herbicidal action, STEME; settings: dosage 320 g/ha
Method in brief: as §1

[9] = tested on: Veronica persica; experiment: Pre-emergence herbicidal action, VERPE; settings: dosage 320 g/ha
Method in brief: as §1

[10] = tested on: Viola tricolor; experiment: Pre-emergence herbicidal action, VIOTR; settings: dosage 320 g/ha
Method in brief: as §1

[11] = tested on: Amaranthus retroflexus; experiment: Post-emergence herbicidal action, AMARE; design: key: % herbicidal action vs untreated; 100 = plants died, 0 = like control; settings: for Herbicidal action against AMARE: post-emergence, dosage 80 g/ha; for herbicidal action AMARE: Dosage 80 g/ha
Method in brief: (§3)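 Percent herbicidal effect was rated visually about 3 weeks after treatment, relative to untreated plants (0% = like control, 100% = dead). Compounds, formulated as WP or EC, went on as aqueous spray (600–800 l/ha, 0.2% wetting agent) to one-leaf-stage plants 2–3 weeks post-sowing in sandy loam.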

[12] = tested on: Echinochloa crus-galli; experiment: Post-emergence herbicidal action, ECHCG; design: key: % herbicidal action vs untreated; 100 = plants died, 0 = like control; settings: for Herbicidal action against ECHCG: post-emergence, dosage 80 g/ha; for herbicidal action ECHCG: Dosage 80 g/ha
Method in brief: as §3

[13] = tested on: Pharbitis purpurea; experiment: Post-emergence herbicidal action, PHBPU; settings: for Herbicidal action against PHBPU: post-emergence, dosage 80 g/ha; for herbicidal action PHBPU: Dosage 80 g/ha
Method in brief: as §3

[14] = tested on: Stellaria media; experiment: Post-emergence herbicidal action, STEME; design: key: % herbicidal action vs untreated; 100 = plants died, 0 = like control; settings: for Herbicidal action against STEME: post-emergence, dosage 80 g/ha; for herbicidal action STEME: Dosage 80 g/ha
Method in brief: as §3

[15] = tested on: Viola tricolor; experiment: Post-emergence herbicidal action, VIOTR; design: key: % herbicidal action vs untreated; 100 = plants died, 0 = like control; settings: for Herbicidal action against VIOTR: post-emergence, dosage 80 g/ha; for herbicidal action VIOTR: Dosage 80 g/ha
Method in brief: as §3

[16] = tested on: Abutilon theophrasti; experiment: Post-emergence herbicidal action, ABUTH; design: key: % herbicidal action vs untreated; 100 = plants died, 0 = like control; settings: for herbicidal action ABUTH: Dosage 80 g/ha
Method in brief: as §3

[17] = tested on: Matricaria inodora; experiment: Post-emergence herbicidal action, MATIN; design: key: % herbicidal action vs untreated; 100 = plants died, 0 = like control; settings: for herbicidal action MATIN: Dosage 80 g/ha
Method in brief: as §3

[18] = tested on: Veronica persica; experiment: Post-emergence herbicidal action, VERPE; design: key: % herbicidal action vs untreated; 100 = plants died, 0 = like control; settings: for herbicidal action VERPE: Dosage 80 g/ha
Method in brief: as §3

[19] = tested on: Cyperus esculentus; experiment: Post-emergence herbicidal action, CYPES; design: key: % herbicidal action vs untreated; 100 = plants died, 0 = like control; settings: Dosage 80 g/ha
Experimental: (§4) [table] 2. Post-Emergence Herbicidal Action Against Harmful Plants Seeds of monocotyledonous and dicotyledonous weed and crop plants are laid out in sandy loam soil in wood-fiber pots, covered with soil and cultivated in a greenhouse under good growth conditions. 2 to 3 weeks after sowing, the test plants are treated at the one-leaf stage. The compounds of the invention, formulated in the form of wettable powders (WP) or as emulsion concentrates (EC), are then sprayed onto the green parts of the plants in the form of an aqueous suspension or emulsion at a water application rate equating to 600 to 800 l/ha, with addition of 0.2% wetting agent. After the test plants have been left to stand in the greenhouse under optimal growth conditions for about 3 weeks, the action of the preparations is assessed visually in comparison to untreated controls (herbicidal action in percent (%): 100% activity=the plants have died, 0% activity=like control plants). […] The tables below illustrate, in an exemplary manner, the post-emergence herbicidal action of the compounds according to the invention, the herbicidal activity being stated in percent. In the experiments that follow, herbicidal action of numerous inventive compounds and the known compounds that are structurally closest from D1 (WO 2012/028579 A1) and D2 (WO 2018/202535 A1) were compared under the above-specified conditions by the pre-emergence and post-emergence method. The example numbers given in the tables relate to the compounds disclosed in the respective documents. In addition to the compounds disclosed in D1 and D2, the following compounds V-1 to V-14 that are encompassed by D1 or D2 but are not compounds specified therein were used in the comparative experiments: • V-1: 2-(methylsulfanyl)-3-(methylsulfinyl)-N-(1-methyl-1H-tetrazol-5-yl)-4-(trifluoromethyl)benzamide • V-2: 2-(methylsulfanyl)-3-(methylsulfonyl)-N-(1-methyl-1H-tetrazol-5-yl)-4-(trifluoromethyl)benzamide • V-3: 2,3-bis(ethylsulfanyl)-N-(1-methyl-1H-tetrazol-5-yl)-4-(trifluoromethyl)benzamide • V-4: 2-chloro-3-(ethylsulfanyl)-N-(1-methyl-1H-tetrazol-5-yl)-4-(trifluoromethyl)benzamide • V-5: 2-chloro-4-iodo-3-(methylsulfanyl)-N-(1-methyl-1H-tetrazol-5-yl)benzamide • V-6: 2-chloro-4-iodo-3-(methylsulfinyl)-N-(1-methyl-1H-tetrazol-5-yl)benzamide • V-7: 2-chloro-4-iodo-3-(methylsulfonyl)-N-(1-methyl-1H-tetrazol-5-yl)benzamide • V-8: 2-bromo-3-(methylsulfanyl)-N-(1-methyl-1H-tetrazol-5-yl)-4-(trifluoromethyl)benzamide • V-9: 2-bromo-3-(methylsulfinyl)-N-(1-methyl-1H-tetrazol-5-yl)-4-(trifluoromethyl)benzamide • V-10: 2-bromo-3-(methylsulfonyl)-N-(1-methyl-1H-tetrazol-5-yl)-4-(trifluoromethyl)benzamide • V-11: 2-bromo-3-(ethylsulfanyl)-N-(1-methyl-1H-tetrazol-5-yl)-4-(trifluoromethyl)benzamide • V-12: 2-bromo-3-(ethylsulfinyl)-N-(1-methyl-1H-tetrazol-5-yl)-4-(trifluoromethyl)benzamide • V-13: 2-bromo-3-(ethylsulfonyl)-N-(1-methyl-1-1H-tetrazol-5-yl)-4-(trifluoromethyl)benzamide • V-14: 2-cyclopropyl-3-(ethylsulfanyl)-N-(1-methyl-1H-tetrazol-5-yl)-4-(trifluoromethyl)benzamide Herbicidal Pre-Emergence Action: […]

[20] = tested on: Setaria viridis; experiment: Post-emergence herbicidal action, SETVI; design: key: % herbicidal action vs untreated; 100 = plants died, 0 = like control; settings: Dosage 80 g/ha
Method in brief: as §3

[21] = tested on: Alopecurus myosuroides; experiment: Post-emergence herbicidal action, ALOMY; design: key: % herbicidal action vs untreated; 100 = plants died, 0 = like control; settings: Dosage 80 g/ha
Experimental: as §4

[22] = scored visually after 3 weeks vs untreated controls (100% = plants have died)

Row | Compound | Herbicidal action against AMARE [11] | Herbicidal action against ECHCG [12] | Herbicidal action against PHBPU [13] | Herbicidal action against STEME [14] | Herbicidal action against VIOTR [15] | herbicidal action AMARE [2] [%] | herbicidal action MATIN [4] [%] | herbicidal action STEME [8] [%] | herbicidal action VERPE [9] [%] | herbicidal action ABUTH [16] | herbicidal action AMARE [11] | herbicidal action CYPES [19] | herbicidal action ECHCG [12] | herbicidal action MATIN [17] | herbicidal action PHBPU [13] | herbicidal action SETVI [20] | herbicidal action STEME [14] | herbicidal action VERPE [18] | herbicidal action VIOTR [15] | further results
1 | Cn1nnnc1NC(=O)c1ccc(S(C)(=O)=O)c(CS(C)(=O)=O)c1Cl [Example 1-280] | 90 | 90 | 90 | 100 | 90 | – | – | – | – | – | – | – | – | – | – | – | – | – | – | herbicidal activity ABUTH [1, 22]: 90%; herbicidal activity AMARE [2, 22]: 100%; herbicidal activity ECHCG [3, 22]: 100%; herbicidal activity MATIN [4, 22]: 90%; herbicidal activity PHBPU [5, 22]: 80%; herbicidal activity POLCO [6]: 80%; herbicidal activity SETVI [7]: 80%; herbicidal activity STEME [8, 22]: 90%; herbicidal activity VERPE [9, 22]: 100%; herbicidal activity VIOTR [10, 22]: 90%
2 | CCCn1nnnc1NC(=O)c1ccc(C(F)(F)F)c(CS(C)(=O)=O)c1S(C)(=O)=O [Example 3-199] | 80 | 80 | 90 | 80 | 90 | 90 | 100 | 80 | 100 | – | – | – | – | – | – | – | – | – | – | herbicidal action ABUTH [1]: 100%; herbicidal action PHBPU [5]: 80%; herbicidal action VIOTR [10]: 100%; Herbicidal action against ABUTH ([16]; post-emergence, dosage 80 g/ha): 90; Herbicidal action against MATIN ([17]; post-emergence, dosage 80 g/ha): 80; Herbicidal action against VERPE ([18]; post-emergence, dosage 80 g/ha): 100
3 | Cc1c(C(=O)Nc2nnnn2C)ccc(S(C)(=O)=O)c1CS(C)(=O)=O [Example 1-39] | – | – | – | – | – | 100 | 100 | – | 90 | 90 | 90 | 80 | 80 | 90 | 80 | 90 | 80 | 90 | 90 | –
4 | CCn1nnnc1NC(=O)c1ccc(S(C)(=O)=O)c(CSC)c1C [Example 2-37] | – | – | – | – | – | 100 | – | 90 | 100 | 80 | 90 | 80 | 100 | 80 | 80 | 100 | 100 | 100 | 100 | herbicidal action ECHCG [3]: 90%; herbicidal action ALOMY [21]: 80
